{"source": "paper PMC12302338", "about": "“Functional genomics and structural insights into maize aldo-keto reductase-4 family: Stress metabolism and substrate specificity in embryos” (The Journal of Biological Chemistry, 2025)", "target": "T1, ZmAKR4C13 (Zea mays, UniProt E9JVD4)", "T1 construct": "gene AR3; monomer", "T1 sequence (E9JVD4 1-319)": "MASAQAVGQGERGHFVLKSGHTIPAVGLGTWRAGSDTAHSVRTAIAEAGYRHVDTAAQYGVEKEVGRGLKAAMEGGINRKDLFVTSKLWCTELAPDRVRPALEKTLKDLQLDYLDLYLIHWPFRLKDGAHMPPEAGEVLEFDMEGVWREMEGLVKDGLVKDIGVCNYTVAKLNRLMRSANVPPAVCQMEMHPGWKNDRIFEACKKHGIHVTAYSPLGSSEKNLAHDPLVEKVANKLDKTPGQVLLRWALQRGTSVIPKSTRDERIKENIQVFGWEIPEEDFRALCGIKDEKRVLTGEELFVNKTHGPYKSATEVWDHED", "test": "X-ray crystallography", "format": "binding", "details": "5JGW 2.30 Å (P2_12_12_1); 5JGY 1.45 Å (P2_1), partial occupancy", "text": "X-ray crystallography on ZmAKR4C13 | b32; b72"}
{"smiles": "NC(=O)c1ccc[n+]([C@@H]2O[C@H](COP(=O)(O)OP(=O)(O)OC[C@H]3O[C@@H](n4cnc5c(N)ncnc54)[C@H](OP(=O)(O)O)[C@@H]3O)[C@@H](O)[C@H]2O)c1", "note": "[NADP+]", "values": [{"measurement": "X-ray crystallography", "value": "b32; b72"}]}
